Each structure is given as a SMILES string.

The subject of one data set is HepG-2. As to the kind of experiment: MTT dose-response anti-proliferative assay, HepG-2. Format: cell-based. As to conditions: Homo sapiens, HepG2; HepG-2, MTT. The source says:
(§1) Doxorubicin was used as a positive reference for the comparison of anticancer activities. The results are tabulated as IC50 value in the μM range, Table 1.
(§2) Three cancer cell lines were used in the antiproliferative activities experiments, namely, breast cancer cell line (MCF-7) and human hepatoma cell line (HepG-2), and Colorectal cell line (HT-29). The source of cell lines is the health sciences research center-core lab- at princess Nou-rah bint Abdulrahman university. All cell lines were maintained in their optimum media (RPMI-1640 or DMEM) supplemented with 10% fetal bovine serum, 100 U/mL penicillin, and 100 μg/mL streptomycin and incubated in a humidified atmosphere at 37 °C with 5% CO2.
(§3) The MTT assay was used to evaluate the anti-proliferative effect of the synthesized compounds against three human cancer cell lines hepatocellular carcinoma (HepG-2), breast cancer (MCF-7) and Colorectal carcinoma (HT-29). For the preliminary screening, HT-29 cells were seeded in 96-well plates (Thermo Scientific, Waltham, MA, USA)(10^3 cells/well) and incubated for 24 h before the treatment. Then, cells were treated with two concentrations (10 and 100 µM) of the tested compounds for 72 h. After the exposure, MTT assay protocol was performed as described. After evaluation of the preliminary anticancer activity, the promising synthesized compounds (8, 9a, 9b, 10a, and 11) were selected and examined against three cell lines (HepG-2, MCF-7, and HT-29). Cells were exposed to serial concentration ([…]) of the selected compounds and dose–response curves were determined to calculate their IC50 values.

In a further data set the test system is MCF-7. As to the kind of experiment: MTT dose-response anti-proliferative assay, MCF-7. As to conditions: Homo sapiens, MCF7, MCF-7, MTT. Format: cell-based, human.
Description: as §1, §2, §3

In data set [1] the test system is normal colon epithelial cells (CCD 841 CoN). As to the kind of experiment: Selectivity assay (MTT) on non-cancerous cells. Format: cell-based. As for the experimental part:
In an attempt to evaluate the anticancer activity of the compounds, selectivity assay was performed and compounds’ selectivity to malignant cells was determined, reflected by their selectivity index. The selectivity index (SI) was calculated by the ratio of the IC50 value of the selected compounds on normal colon epithelial cells (CCD 841 CoN) to the IC50 value of the compounds on cancer cells (HT-29). […] However, based on the designed strategy, this high selectivity towards cancer cells may be attributed to their ability to target oncogenic kinases.
Cells were plated in 96-well plates (10^3 cells/well), and after 24 h, the compounds in concentrations (0.1 to 100 μM) were incubated for 72 h. MTT procedure was then performed, the ratio of IC50 values of the compounds on non-cancerous cells (CCD 841 CoN) to the IC50 values of the compounds on cancer cells (HT-29) was determined as reported, [23, 24] using the following equation, SI = IC50 of normal cells/IC50 of cancer cells.

The next data set concerns HT-29. As to the kind of experiment: MTT dose-response anti-proliferative assay, HT-29. Format: cell-based. As to conditions: Homo sapiens; HT-29, MTT.
Description: as §1, §2, §3

In the next data set the target is T1, FLT3 (Homo sapiens, UniProt P36888).
T1 construct: purchased BD Biosciences, San Diego, CA, USA
T1 sequence (P36888 27-993): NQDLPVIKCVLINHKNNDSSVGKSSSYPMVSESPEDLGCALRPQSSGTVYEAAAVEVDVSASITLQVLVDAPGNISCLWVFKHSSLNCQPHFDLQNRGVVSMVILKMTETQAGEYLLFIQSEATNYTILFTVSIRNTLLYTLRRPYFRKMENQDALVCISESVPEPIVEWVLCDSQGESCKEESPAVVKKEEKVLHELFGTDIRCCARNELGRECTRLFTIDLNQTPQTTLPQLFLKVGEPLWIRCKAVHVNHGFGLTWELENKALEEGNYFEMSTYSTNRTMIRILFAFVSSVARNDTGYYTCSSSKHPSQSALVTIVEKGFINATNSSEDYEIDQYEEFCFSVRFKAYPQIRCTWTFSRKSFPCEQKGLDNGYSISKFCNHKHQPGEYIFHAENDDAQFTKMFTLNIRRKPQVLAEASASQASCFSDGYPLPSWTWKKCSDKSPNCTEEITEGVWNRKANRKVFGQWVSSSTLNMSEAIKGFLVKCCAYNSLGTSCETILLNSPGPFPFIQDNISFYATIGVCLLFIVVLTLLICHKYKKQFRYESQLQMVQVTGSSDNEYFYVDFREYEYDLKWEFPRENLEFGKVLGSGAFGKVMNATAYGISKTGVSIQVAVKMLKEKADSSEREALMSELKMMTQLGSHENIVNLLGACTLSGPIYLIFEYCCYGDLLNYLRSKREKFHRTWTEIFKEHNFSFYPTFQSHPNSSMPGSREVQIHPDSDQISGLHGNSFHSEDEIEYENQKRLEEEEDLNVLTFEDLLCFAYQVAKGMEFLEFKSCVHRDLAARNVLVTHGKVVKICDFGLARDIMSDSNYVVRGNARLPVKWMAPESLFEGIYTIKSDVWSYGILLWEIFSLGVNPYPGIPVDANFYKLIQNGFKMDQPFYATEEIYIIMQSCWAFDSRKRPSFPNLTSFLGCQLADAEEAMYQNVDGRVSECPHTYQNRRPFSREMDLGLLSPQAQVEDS
As to the kind of experiment: In-vitro FLT3 kinase enzyme inhibition assay (FLT3 Kinase Assay Kit). Format: biochemical. As to conditions: FLT3 1.5 ng/µL, 45 min, mean ± SD, n = 3; read-out: FLT3 kinase inhibitory activity IC50. As to the method:
FLT3 Kinase Assay Kit (BD Biosciences, San Diego, CA, USA) was used to determine the inhibitory selectivity of the selected compounds towards the FLT3 enzyme. briefly, serial dilution of the selected compounds was incubated with FLT3 (1.5 ng/µL) for 45 min in a kinase reaction buffer. The FLT3 enzyme reaction was halted and measured by quantifying the amount of ADP produced during the enzyme reaction. Luminescence values were measured by a Varioskan™ LUX multimode microplate reader (Thermo Scientific, Waltham, MA, USA). IC50 was calculated with nonlinear regression compared with untreated reaction using Prism version 8.4.3 (GraphPad).

For a further data set, the system named is HT-29 cells. As to the kind of experiment: Preliminary antiproliferative assessment (MTT) at 10 and 100 μM. Format: cell-based, human. As to conditions: HT-29 cells, 10 and 100 μM, 72 h. As for the experimental part:
All synthesized compounds were subjected to preliminary antiproliferative assessment that was performed on HT-29 cells using concentrations 10 and 100 μM of synthesized compounds for 72 h and the percentage of cell viability was then calculated. […] Thus, all five compounds were further studied by a detailed dose–response relationship against three different cancerous cell lines HT-29, Hep-G2 and MCF-7.
as §2, §3

For data set [2], the system named is protein kinases extracted from HT-29 cell line. Nature of the data set: Kinase inhibition assessment, single dose, ADP-Glo assay. Format: biochemical, human. As to conditions: 20 μM single dose, total intracellular kinases from HT-29, 45 min. As to the method: Inhibitory activity against kinases of the selected compounds was examined using homogeneous protein kinases extracted from HT-29 cell line. The screening assay was performed in a single dose concentration (20 μM) by using ADP-Glo assay (Promega, Madison, WI, USA).
Briefly, protein kinases were added into a 96-well plate followed by addition of the synthesized compounds at the tested dose (20 μM). After 45 min of exposure, kinase activity was assessed using a luminescent luciferase/luciferin reaction. Luminescence quantification was measured by using a Varioskan™ LUX multimode microplate reader (Thermo Scientific, Waltham, MA, USA). Kinase inhibition effect of tested compounds was expressed as the percentage of remaining kinase activity relative to vehicle kinase reaction.

Molecule `Cc1nc2sc3c(c2c(=O)n1NC(=O)CNc1cc(C(C)(C)C)on1)CCCC3` [Compound 9b, 2-(5-Tert-butylisoxazol-3-ylamino)-N-(2-methyl-4-oxo-5,6,7,8-tetrahydrobenzo[4,5]thieno[2,3-d]pyrimidin-3(4H)-yl)acetamide] came in with a melting point of 98 to 100 °C. Further, in the data set on HepG-2, the concentration for half-maximal inhibition (IC50) came out at 9.11 ± 0.3 µM. This molecule also had an IC50 in the data set with MCF-7 of 16.3 ± 2.3 µM. For the same molecule, the IC50 in data set [1] (Homo sapiens, CCD 841 CoN, 72 h, MTT, read-out: IC50 of Non-Cancer Cells CCD 841) amounted to 17.2 ± 1.4 µM. Moreover, the “Selectivity Index (SI) (IC50 of CCD 841/IC50 of HT29)” value in data set [1] (ratio normal CCD 841 / cancer HT-29, 72 h) was 20.2. Also, in the data set with HT-29, inhibition was half-maximal at 0.85 ± 0.16 µM (IC50). The IC50 at FLT3 came out at 47.6 ± 9.3 µM. The “growth inhibitory activities against HT-29 cells (preliminary assay)” value with HT-29 cells was “moderate to significant”. The molecule further returned a kinase inhibition in data set [2] of 13.05%.
